The results in this text go back to publication PMC5796017, “Enantiomeric Effect of D-Amino Acid Substitution on the Mechanism of Action of α-Helical Membrane-Active Peptides” (International Journal of Molecular Sciences, 2017).

Molecules are shown by their SMILES. Converted amounts (≈) assume the structure as drawn.

Data set [1] relates to human red blood (hRBC) cells. The data set can be described thus: Hemolytic activity assay. The data set is classed as cell-based. The following applies: 2% human RBC in PBS, 37 °C, 2 h, absorbance 578 nm, triplicate. The procedure, abridged:
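Healthy human RBCs (2% suspension in PBS) were incubated with serially diluted peptides for 2 h at 37 °C, and released hemoglobin in supernatant was read at 578 nm. Percent hemolysis was taken relative to distilled water (100%) after subtracting PBS (0%); run in triplicate.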

The next data set deals with HPAC. The data set can be described thus: MTT cell viability assay. The data set is classed as cell-based, human. The following applies: 24 h, mean ± SEM of three independent determinations. A digest of the protocol:
(§1)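 Cells seeded at 5000 per well in DMEM/10% FBS, exposed to peptides for 24 h at 37 °C. Viability by MTT, formazan dissolved in DMSO, absorbance at 492 nm. IC50 is the concentration giving 50% viability loss; triplicate.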
Background: Formazan colour is commonly taken as a measure of viable cells.

The next data set concerns BxPC-3. As to the kind of experiment: MTT cell viability assay. Type of data set: cell-based, human. The following applies: BxPC-3, MTT, 24 h; mean ± SEM of three independent determinations. The procedure, abridged: as §1
For the next data set, the system named is MIA PaCa-2. As to the kind of experiment: MTT cell viability assay. Type of data set: cell-based, human. Conditions: MIA PaCa-2, MTT, 24 h; mean ± SEM of three independent determinations. The procedure, abridged: as §1
The next data set relates to HeLa. The data set can be described thus: MTT cell viability assay. The data set is classed as cell-based, human. Conditions: 24 h, mean ± SEM of three independent determinations. The procedure, abridged: as §1
The next data set relates to P. aeruginosa ATCC27853. The data set can be described thus: Antimicrobial activity, microtiter dilution MIC. The data set is classed as cell-based, Pseudomonas aeruginosa. Conditions: G−; MH medium, 5 × 10^5 CFU/mL, 37 °C, 24 h, triplicate. The procedure, abridged: (§2)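 Broth microdilution in Mueller–Hinton medium, inoculum 5 × 10^5 CFU/mL, serially diluted peptide, 24 h at 37 °C. MIC taken as lowest peptide concentration preventing growth; triplicate runs.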

The next data set deals with S. aureus ATCC25923. As to the kind of experiment: Antimicrobial activity, microtiter dilution MIC. The data set is classed as cell-based, Staphylococcus aureus. Conditions: G+; MH medium, 5 × 10^5 CFU/mL, 37 °C, 24 h, triplicate. The procedure, abridged: as §2
The subject of a further data set is E. coli ATCC25922. As to the kind of experiment: AFM imaging. Type of data set: cell-based, Escherichia coli. The following applies: treatment 30 min, imaged in air, contact mode. Here is the method: (§3) The mechanism of the interaction of the peptides with the different kinds of membranes was further analyzed by AFM. E. coli and HeLa cells were imaged to observe the morphologic change of cell membranes with, and without, treatment with V13K. […] Similarly, the surface of untreated cells fixed with, or without, 4% paraformaldehyde were intact and the membrane surface appeared quite smooth (Figure 4E–H).
(§4) The AFM imaging of E. coli ATCC25922 and HeLa cells before, and after, incubation with V13K were performed using an AFM 5500 (Agilent Technologies, Chandler, AZ, USA). The AFM imaging of E. coli was used on the contact mode and the cantilever was used as the B-tip (DNP, B-tip, Bruker AFM probes, California, CA, USA). The AFM imaging of HeLa was used on the AAC mode and the cantilever was used as the D-tip (DNP, D-tip, Bruker AFM probes, Camarillo, California, CA, USA). A single bacterial colony was picked and cultured in Mueller–Hinton (MH) medium for 18–20 h. […] The E. coli and peptide-treated bacteria samples (after treatment for 30 min) were applied onto mica and imaged in air using the contact mode and recorded with 512 × 512 pixels. The images of HeLa cells and peptide-treated HeLa cells (after treatment for 5 min) were obtained in Dulbecco’s Modified Eagle’s medium (DMEM) using the Acoustic AC (AAC) mode and recorded with 512 × 512 pixels. […]

The next data set relates to HeLa cells. The data set can be described thus: AFM imaging. The data set is classed as cell-based, human. Conditions: treatment 5 min, DMEM, AAC mode. Here is the method: as §3, §4

As for `CC[C@H](C)[C@H](NC(=O)[C@H](C)NC(=O)[C@H](CCCCN)NC(=O)[C@H](CC(C)C)NC(=O)[C@H](C)NC(=O)[C@@H](NC(=O)[C@H](Cc1cnc[nH]1)NC(=O)[C@H](CC(C)C)NC(=O)[C@@H](NC(=O)[C@@H](NC(=O)[C@H](CCCCN)NC(=O)[C@H](CCCCN)NC(=O)[C@H](C)NC(=O)[C@H](CO)NC(=O)[C@H](CCCCN)NC(=O)[C@H](Cc1ccccc1)NC(=O)[C@@H](NC(=O)[C@H](CCCCN)NC(=O)[C@H](CC(C)C)NC(=O)[C@H](Cc1ccccc1)NC(=O)[C@H](CO)NC(=O)[C@H](CCCCN)NC(=O)[C@H](Cc1c[nH]c2ccccc12)NC(=O)[C@H](CCCCN)NC(C)=O)[C@@H](C)O)[C@@H](C)O)C(C)C)[C@@H](C)O)C(=O)N[C@@H](CO)C(=O)N[C@@H](CO)C(N)=O` [Peptide V13K], the “MHC (minimal hemolytic concentration)” value in data set [1] was 250 µM. Moreover, the IC50 (as a rule, the concentration at which inhibition is half-maximal) with HPAC came to 7.6 ± 4 µM; in the data set with BxPC-3, 12.5 ± 1.2 µM; in the data set with MIA PaCa-2 it was 24.8 ± 0.6 µM; in the data set with HeLa, 16 ± 0.5 µM. Besides, the results for the MIC in the data set with P. aeruginosa ATCC27853 and against S. aureus ATCC25923 were 8 µM (≈ 23.9 µg/mL) and 32 µM (≈ 95.7 µg/mL), respectively. Also, the “Morphology of bacterial membrane by AFM” value with E. coli ATCC25922 is recorded as “obvious damage to the morphology of bacterial membrane”. In addition, in the data set on HeLa cells, the “Morphology of HeLa cell membrane by AFM” value was “pores and cavities were visible on the surface of the cells”.
